Consider twelve compounds from patent US20040068113A1, “Substituted polycyclic aryl and heteroaryl pyridines useful for selective inhibition of the coagulation cascade” (priority 2003, published 2004).

For orientation: IC50 means the concentration that inhibits the measured activity by half. A word on the inhibition: it is the change of the read-out against control, counted positive when it falls.

Assay type in all cases: biochemical
The target in assay [1] is T1, recombinant soluble tissue factor and recombinant human factor VIIa (TF-VIIa) (Homo sapiens, UniProt P08709).
T1 construct: purchased American Diagnostica, Greenwich Conn; host or cells: soluble TF made in house in E. coli
T1 sequence (P08709 213-466 limits assumed): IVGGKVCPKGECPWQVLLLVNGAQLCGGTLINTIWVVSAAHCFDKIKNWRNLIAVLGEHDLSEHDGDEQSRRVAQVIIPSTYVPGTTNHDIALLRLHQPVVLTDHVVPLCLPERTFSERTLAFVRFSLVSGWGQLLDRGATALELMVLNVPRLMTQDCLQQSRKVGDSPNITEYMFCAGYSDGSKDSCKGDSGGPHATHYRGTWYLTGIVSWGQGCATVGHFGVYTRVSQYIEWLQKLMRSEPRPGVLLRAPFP
T1 sequence (P08709 61-212 limits assumed): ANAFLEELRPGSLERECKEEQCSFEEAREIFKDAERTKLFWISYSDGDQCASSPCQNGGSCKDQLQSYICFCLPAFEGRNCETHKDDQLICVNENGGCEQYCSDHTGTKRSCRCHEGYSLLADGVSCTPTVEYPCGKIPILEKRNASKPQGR
T1 sequence (P13726 33-251 partner limits assumed): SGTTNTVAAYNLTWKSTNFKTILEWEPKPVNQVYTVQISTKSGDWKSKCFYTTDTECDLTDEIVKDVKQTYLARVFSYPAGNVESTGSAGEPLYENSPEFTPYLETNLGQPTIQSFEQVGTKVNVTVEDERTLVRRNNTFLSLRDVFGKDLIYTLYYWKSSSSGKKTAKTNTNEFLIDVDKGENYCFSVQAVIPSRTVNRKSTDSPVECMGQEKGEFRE
Briefly: TF-VIIa Assay. The protocol:
In this assay 100 nM recombinant soluble tissue factor and 2 nM recombinant human factor VIIa are added to a 96-well assay plate containing 0.4 mM of the substrate, N-Methylsulfonyl-D-phe-gly-arg-p-nitroaniline and either inhibitor or buffer (5 mM CaCl2, 50 mM Tris-HCl, pH 8.0, 100 mM NaCl, 0.1% BSA). The reaction, in a final volume of 100 ul is measured immediately at 405 nm to determine background absorbance. The plate is incubated at room temperature for 60 min, at which time the rate of hydrolysis of the substrate is measured by monitoring the reaction at 405 nm for the release of p-nitroaniline. Percent inhibition of TF-VIIa activity is calculated from OD405 nm value from the experimental and control sample.
(§1) Recombinant soluble TF, consisting of amino acids 1-219 of the mature protein sequence was expressed in E. coli and purified using a Mono Q Sepharose FPLC. Recombinant human VIIa was purchased from American Diagnostica, Greenwich Conn. and chromogenic substrate N-Methylsulfonyl-D-phe-gly-arg-p-nitroaniline was prepared by American Peptide Company, Inc., Sunnyvale, Calif. Factor Xa was obtained from Enzyme Research Laboratories, South Bend Ind., thrombin from Calbiochem, La Jolla, Calif., and trypsin and L-BAPNA from Sigma, St. Louis Mo. The chromogenic substrates S-2765 and S-2238 were purchased from Chromogenix, Sweden.

Assay [2] has as its target T2, Trypsin (type 1× from porcine pancreas) (Sus scrofa, UniProt P00761).
T2 construct: Trypsin (5 ug/ml; type 1× from porcine pancreas); purchased Sigma, St. Louis Mo; host or cells: porcine pancreas
Briefly: Trypsin Assay. The following applies: read-out: Trpysin II IC50. The protocol: Trypsin (5 ug/ml; type 1× from porcine pancreas) and 0.375 mM N-α-Benzoyl-L-arginine-p-nitroanilide (L-BAPNA) are added to a 96-well assay plate containing either inhibitor or buffer (50 mM Tris-HCl, pH 8.0, 100 mM NaCl, 0.1% BSA). The reactions, in a final volume of 100 ul are measured immediately at 405 nm to determine background absorbance. The plate is incubated at room temperature for 60 min, at which time the rate of hydrolysis of the substrate is measured by monitoring the reaction at 405 nm for the release of p-nitroaniline. Percent inhibition of trypsin activity is calculated from OD405 nm value from the experimental and control sample.
as §1

A further assay deals with Human thrombin (Homo sapiens, UniProt P00734). Briefly: Thrombin Assay. The following applies: read-out: Thrombin II IC50. The protocol: (§2) Human thrombin (0.28 nm)and 0.06 mM H-D-Phenylalanyl-L-pipecolyl-L-arginine-p-nitroaniline dihydrochloride are added to a 96-well assay plate containing either inhibitor or buffer (50 mM Tris-HCl, pH 8.0, 100 mM NaCl, 0.1% BSA). The reaction, in a final volume of 100 ul is measured immediately at 405 nm to determine background absorbance. The plate is incubated at room temperature for 60 min, at which time the rate of hydrolysis of the substrate is measured by monitoring the reaction at 405 nm for the release of p-nitroaniline. Percent inhibition of thrombin activity is calculated from OD405nm value from the experimental and control sample.
as §1

The target of another assay is T3, Human factor Xa (Homo sapiens, UniProt P00742).
T3 construct: purchased Enzyme Research Laboratories, South Bend Ind
T3 sequence (P00742 235-488 limits assumed): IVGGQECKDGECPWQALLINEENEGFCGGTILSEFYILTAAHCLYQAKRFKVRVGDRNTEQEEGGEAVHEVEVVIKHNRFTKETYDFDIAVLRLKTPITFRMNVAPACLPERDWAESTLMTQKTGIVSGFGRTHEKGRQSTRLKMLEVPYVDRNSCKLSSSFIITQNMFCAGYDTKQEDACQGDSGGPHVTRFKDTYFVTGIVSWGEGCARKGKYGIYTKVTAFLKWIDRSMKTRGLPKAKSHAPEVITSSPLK
T3 sequence (P00742 41-179 limits assumed): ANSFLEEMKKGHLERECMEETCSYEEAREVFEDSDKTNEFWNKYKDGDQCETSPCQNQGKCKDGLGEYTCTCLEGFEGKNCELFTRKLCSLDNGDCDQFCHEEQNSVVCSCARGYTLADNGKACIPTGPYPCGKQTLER
As to the kind of experiment: Xa Assay. The protocol:
as §2, with “factor Xa (0.3 nM) and 0.15” for “thrombin (0.28 nm)and 0.06”, “N-a-Benzyloxycarbonyl-D-arginyl-L-glycyl-L-arginine-p-nitroaniline-dihydrochloride (S-2765)” for “H-D-Phenylalanyl-L-pipecolyl-L-arginine-p-nitroaniline dihydrochloride”, “Xa” for “thrombin”, “OD405 nm” for “OD405nm”
as §1

Where [3] appears, read: read-out: Factor Xa percent inhibition.

T2 sequence (P00761 9-231): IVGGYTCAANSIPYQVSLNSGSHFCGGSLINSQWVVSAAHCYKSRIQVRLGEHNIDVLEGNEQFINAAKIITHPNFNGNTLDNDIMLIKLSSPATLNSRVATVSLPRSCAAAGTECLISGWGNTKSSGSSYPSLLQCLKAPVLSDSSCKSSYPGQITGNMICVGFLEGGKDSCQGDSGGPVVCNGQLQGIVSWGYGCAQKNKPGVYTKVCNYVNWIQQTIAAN

`CC(C)Nc1ccc(-c2cccc(N)c2)c(CC(=O)NCc2ccc(C(=N)N)cc2)[n+]1[O-]` [Example 14]: the IC50 in assay [1] was 0.155 µM; in assay [2], < 0.14 µM; at Human thrombin, 9.9 µM; on Human factor Xa, > 100 µM.
For the compound `CC(=O)c1cccc(-c2ccc(NC(C)C)[n+]([O-])c2CC(=O)NCc2ccc(C(=N)N)cc2)c1` [Example 10], the IC50 stood at 1.7 µM in assay [1], 0.035 µM in assay [2] and 3 µM on Human thrombin. Further, the inhibition at 100 µM at Human factor Xa (@ 100 uM, read-out: Factor Xa percent inhibition) was found to be 40%.
As for `CC(C)Nc1ccc(/C=C/c2ccccc2)c(CC(=O)NCc2ccc(C(=N)N)cc2)[n+]1[O-]` [Example 12], the inhibition at 100 µM in assay [1] (at 100 uM, read-out: TF-VIIA percent inhibition) came to 23%. Further, the results for the IC50 (in assay [2]; at Human thrombin) were 0.99 µM and 29 µM, respectively.
`N=C(N)c1ccc(CNC(=O)Cc2c(-c3cccc(N)c3)ccc(NC3CCC3)[n+]2[O-])cc1` [Example 2]: the IC50 in assay [1] amounted to 0.07 µM; in assay [2], 0.02 µM; on Human thrombin, 7.13 µM. In addition, the inhibition at 30 µM on Human factor Xa (setting [3]) worked out at 26%.
`CC(C)Nc1ccc(-c2ccccc2Oc2ccccc2)c(CC(=O)NCc2ccc(C(=N)N)cc2)[n+]1[O-]` [Example 6]: the IC50 in assay [1] is 6.94 µM; in assay [2], 0.17 µM; on Human thrombin it was 86.5 µM; against Human factor Xa it was > 100 µM.
Regarding `CC(C)Nc1ccc(-c2cc(N)cc(N)c2)c(CC(=O)NCc2ccc(C(=N)N)cc2)[n+]1[O-]` [Example 7], the half-inhibitory concentration (IC50) in assay [1] was 0.084 µM; in assay [2] it was 0.022 µM; at Human thrombin it was 60.7 µM.
Turning to `CC(C)Nc1ccc(-c2cc(N)cc(C(=O)O)c2)c(CC(=O)NCc2ccc(C(=N)N)cc2)[n+]1[O-]` [Example 3], the IC50 was 0.72 µM in assay [1], 0.158 µM in assay [2], > 100 µM on Human thrombin and > 100 µM on Human factor Xa.
For `CC(C)Nc1ccc(-c2cccc(CO)c2)c(CC(=O)NCc2ccc(C(=N)N)cc2)[n+]1[O-]` [Example 9], the IC50 in assay [1] is 1.72 µM; in assay [2], 0.21 µM; at Human thrombin, 6.6 µM; against Human factor Xa it was > 100 µM.
Consider `CC(C)Nc1ccc(-c2ccccc2OCc2ccccc2)c(CC(=O)NCc2ccc(C(=N)N)cc2)[n+]1[O-]` [Example 5], for which the IC50 in assay [1] is 2.38 µM; in assay [2] it was 0.1 µM; at Human thrombin, 0.37 µM; against Human factor Xa it was > 100 µM.
As for `N=C(N)c1ccc(CNC(=O)Cc2nc(NC3CCC3)ccc2-c2cccc(N)c2)cc1` [Example 1], the IC50 was found to be 2.46 µM in assay [1], 0.06 µM in assay [2] and 0.71 µM on Human thrombin. For the same compound, on Human factor Xa (setting [3]), the inhibition at 30 µM was 27%.
Consider `CC(C)Nc1ccc(-c2csc3ccccc23)c(CC(=O)NCc2ccc(C(=N)N)cc2)[n+]1[O-]` [Example 11], for which the half-maximal inhibitory concentration (IC50) in assay [1] is 5.6 µM; in assay [2], 0.079 µM; at Human thrombin, 39.5 µM; at Human factor Xa it was 21 µM.
As to `CC(C)Nc1ccc(-c2ccccc2CN2C(=O)c3ccccc3C2=O)c(CC(=O)NCc2ccc(C(=N)N)cc2)[n+]1[O-]` [Example 13], the IC50 is 1.42 µM in assay [1], 0.121 µM in assay [2], 12 µM at Human thrombin and > 100 µM at Human factor Xa.
